{"source": "patent US7563805B2", "about": "“Tri-, tetra-substituted-3-aminopyrrolidine derivative” (Daiichi Pharmaceutical Co., Ltd., priority 2005, dated 2009)", "key": {"[1]": {"target": "CYP3A4 (Homo sapiens, UniProt P08684)", "sequence (P08684 whole entry)": "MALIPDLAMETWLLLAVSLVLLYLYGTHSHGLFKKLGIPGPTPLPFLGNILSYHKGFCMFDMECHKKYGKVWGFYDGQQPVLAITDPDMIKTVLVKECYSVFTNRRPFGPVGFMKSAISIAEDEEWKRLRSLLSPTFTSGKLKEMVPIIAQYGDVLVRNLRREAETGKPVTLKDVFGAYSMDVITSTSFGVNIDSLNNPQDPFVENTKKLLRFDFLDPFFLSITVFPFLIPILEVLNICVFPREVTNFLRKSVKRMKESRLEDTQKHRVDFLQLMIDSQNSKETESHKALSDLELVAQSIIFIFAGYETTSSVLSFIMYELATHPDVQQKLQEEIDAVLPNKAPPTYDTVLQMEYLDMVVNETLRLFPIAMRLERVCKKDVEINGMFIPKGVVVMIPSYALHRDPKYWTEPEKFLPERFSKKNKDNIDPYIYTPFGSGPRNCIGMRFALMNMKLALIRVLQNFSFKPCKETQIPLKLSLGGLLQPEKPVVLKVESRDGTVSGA", "conditions": "known from the document cited; cited from earlier work"}, "[2]": {"system": "S. pneumoniae, J24 (penicillin-intermediate resistant bacteria)", "experiment": "antibacterial activity (MIC), standard method of Japanese Society of Chemotherapy"}, "[3]": {"conditions": "rat, in vivo, po, 5 mg/kg"}, "[4]": {"system": "P. vulgaris, 08601", "experiment": "antibacterial activity (MIC), standard method of Japanese Society of Chemotherapy", "conditions": "P. vulgaris"}, "[5]": {"system": "S. aureus, 209P", "experiment": "antibacterial activity (MIC), standard method of Japanese Society of Chemotherapy"}, "[6]": {"system": "E. coli NIHJ", "experiment": "antibacterial activity (MIC), standard method of Japanese Society of Chemotherapy", "conditions": "E. coli NIHJ"}, "[7]": {"system": "E. faecalis, ATCC 19433", "experiment": "antibacterial activity (MIC), standard method of Japanese Society of Chemotherapy", "conditions": "E. faecalis"}, "[8]": {"system": "bone marrow cells (polychromatic erythrocytes)", "experiment": "mouse bone marrow micronucleus test", "format": "in vivo, Slc:ddY male mice", "conditions": "in vivo", "experimental": "The control was 0.1 mol/l NaOH/physiological saline solvent, and the positive control was cyclophosphamide (cyclophoshamide, CP) dissolved and diluted in physiological saline. All samples were sterilized by filtering through Milex GS filter (0.22 μm). Each solution was intravenously administered at a dose of 10 mL/kg in single dose at an administration rate of 0.2 mL/min.\nBone marrow cells were collected from thigh bone at 24 hours after the administration, and smear preparation was prepared. After staining with acridine orange, 1000 polychromatic erythrocytes per animal were observed under fluorescence microscope to count frequency of micrronucleated polychromatic erythrocyte and ratio of the orthochromatic erythrocytes to the polychromatic erythrocyte in 1000 erythrocytes."}, "[9]": {"target": "hERG K+ channel (Homo sapiens, UniProt Q12809)", "sequence (Q12809 whole entry)": "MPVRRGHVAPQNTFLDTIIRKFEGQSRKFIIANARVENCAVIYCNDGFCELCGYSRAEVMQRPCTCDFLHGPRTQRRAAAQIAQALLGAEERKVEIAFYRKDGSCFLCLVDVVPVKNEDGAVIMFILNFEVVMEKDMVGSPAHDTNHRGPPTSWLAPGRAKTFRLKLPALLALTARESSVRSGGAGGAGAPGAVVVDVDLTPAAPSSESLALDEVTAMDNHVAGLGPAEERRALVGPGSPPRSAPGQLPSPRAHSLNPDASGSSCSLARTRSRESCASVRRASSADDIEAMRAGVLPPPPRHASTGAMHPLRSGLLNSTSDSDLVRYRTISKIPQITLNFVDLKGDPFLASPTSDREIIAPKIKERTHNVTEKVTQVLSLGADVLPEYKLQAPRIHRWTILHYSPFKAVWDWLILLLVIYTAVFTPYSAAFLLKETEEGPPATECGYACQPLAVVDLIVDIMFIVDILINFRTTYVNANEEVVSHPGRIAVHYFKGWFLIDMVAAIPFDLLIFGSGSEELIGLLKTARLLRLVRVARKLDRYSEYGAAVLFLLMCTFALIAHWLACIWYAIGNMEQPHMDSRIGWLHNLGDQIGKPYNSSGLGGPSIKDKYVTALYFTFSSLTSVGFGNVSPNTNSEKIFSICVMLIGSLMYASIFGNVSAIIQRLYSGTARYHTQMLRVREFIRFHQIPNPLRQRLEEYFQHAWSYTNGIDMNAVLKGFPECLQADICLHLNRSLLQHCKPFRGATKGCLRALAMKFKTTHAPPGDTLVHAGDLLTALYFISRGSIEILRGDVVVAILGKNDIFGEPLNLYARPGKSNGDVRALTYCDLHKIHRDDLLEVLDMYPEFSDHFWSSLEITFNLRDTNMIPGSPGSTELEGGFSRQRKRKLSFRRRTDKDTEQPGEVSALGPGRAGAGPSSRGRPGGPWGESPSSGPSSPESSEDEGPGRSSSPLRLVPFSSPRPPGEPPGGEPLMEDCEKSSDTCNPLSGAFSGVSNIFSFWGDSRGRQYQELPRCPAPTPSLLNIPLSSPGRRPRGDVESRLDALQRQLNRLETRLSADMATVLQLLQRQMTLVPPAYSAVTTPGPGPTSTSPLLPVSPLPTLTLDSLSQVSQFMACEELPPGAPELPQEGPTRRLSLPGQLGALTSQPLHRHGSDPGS"}, "[10]": {"system": "S. marscecens, 10100", "experiment": "antibacterial activity (MIC), standard method of Japanese Society of Chemotherapy"}, "[11]": {"format": "in vivo", "conditions": "30 minutes observation", "experimental": "The test substance was intracisternally administered to male Slc:ddy mice (6 animals per group), and the convulsion and death were monitored for each cage until 30 minutes after the administration. The test substance was dissolved in 5 μl of 1% aqueous solution of lactic acid, and the dose was 5, 15, or 50 μg per animal."}, "[12]": {"system": "P. aeruginosa, 32104", "experiment": "antibacterial activity (MIC), standard method of Japanese Society of Chemotherapy", "conditions": "P. aeruginosa"}, "[13]": {"system": "S. aureus, 87037 (LVFX-resistant MRSA)", "experiment": "antibacterial activity (MIC), standard method of Japanese Society of Chemotherapy", "conditions": "S. aureus, 87037 (LVFX-resistant MRSA)"}, "[14]": {"system": "S. epidermidis, 56500", "experiment": "antibacterial activity (MIC), standard method of Japanese Society of Chemotherapy", "conditions": "S. epidermidis"}, "[15]": {"system": "P. aeruginosa, 32121", "experiment": "antibacterial activity (MIC), standard method of Japanese Society of Chemotherapy", "conditions": "P. aeruginosa"}}, "note": "Like-named read-outs stand apart in the source and are kept apart here.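 Throughout, for Recovery (%) in urine in relation to the amount administered, 0-24 h: fasted 7-week-old rats, three per group, tissue sampled up to 8 h post-dose and urine collected over 0–24 h, with conjugates measured after alkaline hydrolysis, concentrations by LC-MS/MS.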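 Throughout, for Recovery (%) in urine in relation to the amount administered, Recovery (%) including conjugate: fasted 7-week-old rats, three per group, tissue sampled up to 8 h post-dose and urine collected over 0–24 h, with conjugates measured after alkaline hydrolysis, concentrations by LC-MS/MS.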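 Throughout, for Serum AUC0-8 h: fasted 7-week-old rats, three per group, tissue sampled up to 8 h post-dose and urine collected over 0–24 h, with conjugates measured after alkaline hydrolysis, concentrations by LC-MS/MS.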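 Throughout, for Serum Cmax (0.25 h): fasted 7-week-old rats, three per group, tissue sampled up to 8 h post-dose and urine collected over 0–24 h, with conjugates measured after alkaline hydrolysis, concentrations by LC-MS/MS.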", "data": [{"compound": "CC[C@H]1OC(=O)[C@H](C)[C@@H](O[C@H]2C[C@@](C)(OC)[C@@H](O)[C@H](C)O2)[C@H](C)[C@@H](O[C@@H]2O[C@H](C)C[C@H](N(C)C)[C@H]2O)[C@](C)(OC)C[C@@H](C)C(=O)[C@H](C)[C@@H](O)[C@]1(C)O", "note": "[clarithromycin]", "values": [{"measurement": "MBI action for CYP3A4", "setting": "[1]", "result": "exhibit MBI action for CYP3A4"}]}, {"compound": "COc1c(N2C[C@@H](C)[C@@](C)(N)C2)c(F)cc2c(=O)c(C(=O)O)cn([C@@H]3C[C@@H]3F)c12", "note": "(relative stereo) [Example 3, 7-[(3R*,4R*)-3-Amino-3,4-dimethylpyrrolidin-1-yl]-6-fluoro-1-[(1R,2S)-2-fluorocyclopropyl]-8-methoxy-1,4-dihydro-4-oxoguinoline-3-carboxylic acid]", "values": [{"measurement": "MIC", "setting": "[2]", "result": 0.1, "unit": "µg/mL"}, {"measurement": "Recovery (%) in urine in relation to the amount administered, 0-24 h", "setting": "[3]", "result": 24.5, "unit": "%"}, {"measurement": "Recovery (%) in urine in relation to the amount administered, Recovery (%) including conjugate", "setting": "[3]", "result": 24.7, "unit": "%"}, {"measurement": "Serum AUC0-8 h", "setting": "[3]", "result": 1850, "unit": "ng·h/mL"}, {"measurement": "Serum Cmax (0.25 h)", "setting": "[3]", "result": 1030, "unit": "ng/mL"}, {"measurement": "Tissue AUC0-8 h, Kidney", "setting": "[3]", "result": 17100, "unit": "ng·h/mL"}, {"measurement": "Tissue AUC0-8 h, Liver", "setting": "[3]", "result": 15400, "unit": "ng·h/mL"}, {"measurement": "Tissue AUC0-8 h, Lung", "setting": "[3]", "result": 7380, "unit": "ng·h/mL"}, {"measurement": "Tissue Cmax, Kidney", "setting": "[3]", "result": 8.83, "unit": "µg/g"}, {"measurement": "Tissue Cmax, Liver", "setting": "[3]", "result": 9.02, "unit": "µg/g"}, {"measurement": "Tissue Cmax, Lung", "setting": "[3]", "result": 3.47, "unit": "µg/g"}, {"measurement": "MIC", "setting": "[4]", "result": 0.05, "unit": "µg/mL"}, {"measurement": "MIC", "setting": "[5]", "result": 0.025, "unit": "µg/mL"}, {"measurement": "MIC", "setting": "[6]", "result": 0.012, "unit": "µg/mL"}, {"measurement": "MIC", "setting": "[7]", "result": 0.2, "unit": "µg/mL"}, {"measurement": "micronucleus induction rate versus control, evaluation result", "setting": "[8]", "result": "negative"}, {"measurement": "hERG-K^+ channel blocking effect, Inhibition (%)", "setting": "[9]; 30 µM", "result": "5.3 ± 4.1", "unit": "%"}, {"measurement": "hERG-K^+ channel blocking effect, Inhibition (%)", "setting": "[9]; 100 µM", "result": "12.0 ± 4.0", "unit": "%"}, {"measurement": "hERG-K^+ channel blocking effect, Inhibition (%)", "setting": "[9]; 300 µM", "result": "22.3 ± 0.7", "unit": "%"}, {"measurement": "MIC", "setting": "[10]", "result": 0.2, "unit": "µg/mL"}, {"measurement": "convulsant activity (animals affected / 6 animals per group)", "setting": "[11]; 5 μg/mouse intracisternal", "result": "0/6"}, {"measurement": "convulsant activity (animals affected / 6 animals per group)", "setting": "[11]; 15 μg/mouse intracisternal", "result": "2/6"}, {"measurement": "convulsant activity (animals affected / 6 animals per group)", "setting": "[11]; 50 μg/mouse intracisternal", "result": "6/6"}, {"measurement": "MIC", "setting": "[12]", "result": 0.39, "unit": "µg/mL"}, {"measurement": "MIC", "setting": "[13]", "result": 0.78, "unit": "µg/mL"}, {"measurement": "MIC", "setting": "[14]", "result": 0.1, "unit": "µg/mL"}, {"measurement": "MIC", "setting": "[15]", "result": 0.2, "unit": "µg/mL"}]}]}
